Experimental data as given in PubChem BioAssay AID2060330 (Molecular Pharmacology Branch, DTP, NCI, 2025).
Several values for one entry are separate records, joined by “and”; a condition that tells them apart may be missing. Equal values may be shown once.

System: LG0703-F948-PDC spheroids with HUVEC/MSC, viability
Experiment: Anticancer human tumor LG0703-F948-PDC patient-derived lung adenocarcinoma cell line growth inhibition [IpAb]
Details: for viability, T/C: stronger effect = lower value
From the text: Combinatorial screen of targeted agents with ipatasertib and abemaciclib in multi-cell type tumor spheroids
A high-throughput screen of multi-cell type tumor spheroids was designed to identify active combinations of targeted small molecules and ipatasertib or abemaciclib. Complex spheroids include a stromal component modeled by human endothelial cells (HUVEC) and fibroblasts modeled by human mesenchymal stem cells (MSCs). The concentration ranges selected for each drug and investigational agent were based upon clinically achievable concentrations if the clinical Cmax of the agent was known.
Compounds. The drugs and investigational agents: ipatasertib (NSC767898), abemaciclib(NSC768073), selumetinib (NSC741078), trametinib (758246), adavosertib (NSC754352), everolimus (NSC733504), sapanisertib (NSC764658), vemurafenib (NSC761431), venetoclax (NSC766270), copanlisib (NSC809693), apelisib (NSC765974), palbociblib (NSC758247), vemurafenib (NSC761431), dabrafenib (NSC764134), ravoxertinib (NSC781343), BMS-387032 (NSC767048), sotorasib (NSC818433), talazoparib (NSC767125) and afursertib (NSC778305), were obtained from the National Cancer Institute (NCI) Developmental Therapeutics Program Chemical Repository. The FDA-approved anticancer drug set is available from the NCI Developmental Therapeutics Program. […] The stock solutions were prepared in dimethyl sulfoxide (DMSO, Sigma-Aldrich, St. Louis, MO, cat. D2650) at 800-fold the tested concentration and stored at -70 degrees C prior to their use. All drugs and investigational agents were tested over a range starting from a high concentration at or near the clinical Cmax and decreasing in half-log increments. If the clinical Cmax for an agent had not been determined, the highest concentration tested was 10 microM.
NCI60 Cell Culture. NCI60 cell lines were obtained from the NCI Developmental Therapeutics Program Tumor Repository. For each lot of cells, the Repository performed Applied Biosystems AmpFLSTR Identifiler testing with PCR amplification to confirm consistency with the published Identifier STR profile for each cell line. Cells were kept in continuous culture for no more than 20 passages. The optimal seeding densities for each of the cell lines at each time point assessed were determined prior to performing the concentration response studies. Briefly, the NCI60 human tumor lines were grown as monolayers in RPMI 1640 medium supplemented with 10% FBS and 2 mmol/L L-glutamine.
An additional 9 lines were from the NCI60 cell line panel including MDA-MB-231 breast carcinoma, MDA-MB-468 breast carcinoma, MCF7 breast carcinoma, Hs578T breast carcinoma, MALME-3M melanoma, SK-MEL-2 melanoma, SK-OV-3 ovarian carcinoma, DU-145 prostate carcinoma, PC-3 prostate carcinoma, all cell lines along with major genetic alterations are listed on Table 2. Pooled donor human umbilical vein endothelial cells (HUVEC, Lonza, cat. CC-2519) and human mesenchymal stem cells (hMSC, Lonza, cat. PT-2501) were purchased from Lonza (Walkersville, MD).
PDMR cell lines were grown in complete medium (DC medium): Dulbecco's modified Eagle's medium (DMEM)/F12 supplemented with 5% fetal bovine serum (FBS), 2 mM L-glutamine, 100 U/mL penicillin and 100 µg/ml streptomycin, 0.4 µg/ml hydrocortisone, 10 ng/ml epidermal growth factor (EGF) recombinant human protein, 24 µg/mL adenine, and 0.1 mg/mL primocin. During culture from frozen stock vials, PDMR cells were cultured in the same medium containing 10 µM Y-27632 (see Table 3). The PDCs were cultured in complete DMEM/F12 media without 10 microM Y-27632 dihydrochloride for at least two passages prior to the screen. The pooled donor HUVEC and hMSC were cultured in endothelial cell growth medium 2 (PromoCell, Heidelberg, Germany, cat. C-22011) and mesenchymal stem cell growth medium 2 (PromoCell, cat. C-28009), respectively. For all experiments, HUVEC and hMSC were used at passages </=5.
[…]
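Also: spheroids exposed to compounds for seven days before readout.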
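For viability, T/C in this document: T/C percent relative to DMSO vehicle wells set as 100% viability.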

Cc1nc(NC(=O)N2CCCC2C(N)=O)sc1-c1ccnc(C(C)(C)C(F)(F)F)c1 (stereo not given) was tested, and the viability, T/C (compound 0.0316 µM) was 93.3% and 92%, the viability, T/C (compound 0.1 µM) was 85.5% and 87.4% and the viability, T/C (compound 0.316 µM) was 77.1% and 72.5%. For the same molecule, the viability, T/C (compound 1 µM) was 53.9% and 63.8%, the viability, T/C (compound 3.16 µM) was 28% and 30.2% and the viability, T/C (compound 10 µM) was 3.02% and 2.66%. The IC50 (curve of compound) was 1230 nM and 1480 nM.
In the case of Cn1cnc2c(F)c(Nc3ccc(Br)cc3Cl)c(C(=O)NOCCO)cc21, the viability, T/C (compound 0.00949 µM) is reported as 85.5% and 87.7%, the viability, T/C (compound 0.03 µM) is reported as 64.7% and 68.2% and the viability, T/C (compound 0.0949 µM) is reported as 53.1% and 54.3%. For the same molecule, the viability, T/C (compound 0.3 µM) was 50.3% and 50.7%, the viability, T/C (compound 0.949 µM) was 37.5% and 43.6% and the viability, T/C (compound 3 µM) was 35.4% and 42.1%. The IC50 (curve of compound) was 166 nM and 234 nM.
With Cn1ncc(Cl)c1-c1cc(C(=O)NC(CN)Cc2cccc(F)c2)sc1Cl (stereo not given) the viability, T/C (compound 0.0316 µM) was 85.7% and 79%, the viability, T/C (compound 0.1 µM) was 71.9% and 81.5% and the viability, T/C (compound 0.316 µM) was 60.7% and 58.4%. For the same molecule, the viability, T/C (compound 1 µM) was 48% and 62.5%, the viability, T/C (compound 3.16 µM) was 17.1% and 21.7% and the viability, T/C (compound 10 µM) was 0.19%. For the same molecule, the IC50 (curve of compound) was 650 nM and 1170 nM.
Cn1nccc1Nc1nccc(-c2ccn(C(CO)c3ccc(Cl)c(F)c3)c(=O)c2)n1 (stereo not given) was tested, and the viability, T/C (compound 0.0316 µM) was 93.2% and 90.2%, the viability, T/C (compound 0.1 µM) was 90.3% and 80.3% and the viability, T/C (compound 0.316 µM) was 71.5% and 79%. The viability, T/C (compound 1 µM) was 77.8% and 60.3%, the viability, T/C (compound 3.16 µM) was 85.2% and 81% and the viability, T/C (compound 10 µM) was 52.8% and 67.5%. For the same molecule, the IC50 (curve of compound) was > 10000 nM.
With Cn1ncnc1[C@H]1c2n[nH]c(=O)c3cc(F)cc(c23)N[C@@H]1c1ccc(F)cc1 the viability, T/C (compound 0.000316 µM) was 108% and 102%, the viability, T/C (compound 0.001 µM) was 100% and 95.7% and the viability, T/C (compound 0.00316 µM) was 96.7% and 99%. The viability, T/C (compound 0.01 µM) was 102% and 101%, the viability, T/C (compound 0.0316 µM) was 87.6% and 92.6% and the viability, T/C (compound 0.1 µM) was 83.5% and 84.1%. The IC50 (curve of compound) was > 100 nM.
For Cn1cnc2c(F)c(Nc3ccc(Br)cc3Cl)c(C(=O)NOCCO)cc21 + CC(C)NCC(C(=O)N1CCN(c2ncnc3c2C(C)CC3O)CC1)c1ccc(Cl)cc1, the IC50 (curve of first compound, second compound 0.1 µM) was 12.4 nM, the IC50 (curve of first compound, second compound 0.316 µM) was < 9.49 nM and the IC50 (curve of first compound, second compound 1 µM) was < 9.49 nM. The IC50 (curve of first compound, second compound 3.16 µM) was < 9.49 nM, the IC50 (curve of first compound, second compound 10 µM) was < 9.49 nM and the viability, T/C (second compound 0.1 µM, first compound 0.00949 µM) was 55%. It also gave a viability, T/C (second compound 0.1 µM, first compound 0.03 µM) of 35.1%, a viability, T/C (second compound 0.1 µM, first compound 0.0949 µM) of 27.4% and a viability, T/C (second compound 0.1 µM, first compound 0.3 µM) of 20.1%. The viability, T/C (second compound 0.1 µM, first compound 0.949 µM) was 18.3%, the viability, T/C (second compound 0.1 µM, first compound 3 µM) was 14% and the viability, T/C (second compound 0.316 µM, first compound 0.00949 µM) was 36.3%. It also gave a viability, T/C (second compound 0.316 µM, first compound 0.03 µM) of 19.5%, a viability, T/C (second compound 0.316 µM, first compound 0.0949 µM) of 14.1% and a viability, T/C (second compound 0.316 µM, first compound 0.3 µM) of 7.81%. For the same molecule, the viability, T/C (second compound 0.316 µM, first compound 0.949 µM) was 7.98%, the viability, T/C (second compound 0.316 µM, first compound 3 µM) was 3.28% and the viability, T/C (second compound 1 µM, first compound 0.00949 µM) was 21.6%. It also gave a viability, T/C (second compound 1 µM, first compound 0.03 µM) of 12.9%, a viability, T/C (second compound 1 µM, first compound 0.0949 µM) of 5.36% and a viability, T/C (second compound 1 µM, first compound 0.3 µM) of 3.84%. It also gave a viability, T/C (second compound 1 µM, first compound 0.949 µM) of 2.91%, a viability, T/C (second compound 1 µM, first compound 3 µM) of 1.32% and a viability, T/C (second compound 3.16 µM, first compound 0.00949 µM) of 13.7%. The viability, T/C (second compound 3.16 µM, first compound 0.03 µM) was 6.24%, the viability, T/C (second compound 3.16 µM, first compound 0.0949 µM) was 3.66% and the viability, T/C (second compound 3.16 µM, first compound 0.3 µM) was 3.22%. For the same molecule, the viability, T/C (second compound 3.16 µM, first compound 0.949 µM) was 2.57%, the viability, T/C (second compound 3.16 µM, first compound 3 µM) was 3.42% and the viability, T/C (second compound 10 µM, first compound 0.00949 µM) was 7.41%. The viability, T/C (second compound 10 µM, first compound 0.03 µM) was 4.11%, the viability, T/C (second compound 10 µM, first compound 0.0949 µM) was 1.36% and the viability, T/C (second compound 10 µM, first compound 0.3 µM) was 2.06%. The viability, T/C (second compound 10 µM, first compound 0.949 µM) was 1% and the viability, T/C (second compound 10 µM, first compound 3 µM) was 0.28%.
